Results reported in US10702607B2, “Abuse-deterrent pharmaceutical compositions” (priority 2016, dated 2020).

Legend:
laccase [1] = experiment: Laccase mediator system (LMS) with oxycodone: oxygen concentration measurement; type: biochemical; settings: mediator 2 mM, 10 units laccase ml^-1, 1000 mgL^-1 oxycodone
Procedure: During the reaction oxygen acts as electron acceptor and is reduced to water by laccases while the mediators are oxidized. The concentration of oxygen was measured as described above. Oxygen is consumed until the mediator is fully oxidized. […] The second step of the reaction is initiated by addition of the target substrate, which is consequently oxidized by the mediators.
In the present experiments the final reaction mixtures contained 0.2 to 6 mM mediator, 1-10 units of laccase per ml and 100-3000 mg L^−1 opioid.
The different mediators were used at concentrations of 2 mM with 10 units laccase ml^−1 and 1000 mgL^−1 oxycodone.

laccase [2] = experiment: Laccase mediator system (LMS) with oxycodone: HPLC-MS/TOF measurement; settings: mediator 2 mM
pepsin = target: T1, pepsin (Sus scrofa, UniProt P00791); experiment: Pepsin digestion assay in simulated gastric fluid (SGF) with SDS-PAGE analysis; type: in vitro ADME; settings: 37° C.
T1 construct: purchased Sigma-Aldrich (US) P7000
T1 sequence (P00791 60-385): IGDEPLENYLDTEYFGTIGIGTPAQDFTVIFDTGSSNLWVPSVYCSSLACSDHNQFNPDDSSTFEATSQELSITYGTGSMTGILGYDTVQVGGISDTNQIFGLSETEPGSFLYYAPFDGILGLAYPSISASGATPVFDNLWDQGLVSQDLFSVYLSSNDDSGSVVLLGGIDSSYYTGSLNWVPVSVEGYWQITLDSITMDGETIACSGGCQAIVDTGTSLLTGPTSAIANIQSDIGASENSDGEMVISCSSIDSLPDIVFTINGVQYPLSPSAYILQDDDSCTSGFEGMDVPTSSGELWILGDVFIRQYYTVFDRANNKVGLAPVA
Procedure: SGF contains 0.084 M HCl, 0.035 M NaCl, 4000 U of pepsin per reaction mixture and has a pH level of 1.2 according to the United States Pharmacopeia (1995). A ratio of 10000 Units of pepsin activity to 1 mg of test protein was used throughout the assay, which is based on an evaluation of the average activity of pepsin recommended in the United States Pharmacopeia (24th edition, 2000) with some modifications. Pepsin (ref. # P7000) was purchased from Sigma-Aldrich (US). All proteins that were used were dissolved in 50 mM Tris-HCl (pH 9.5) at a concentration of 5 mg mL^−1. The reaction mixture contained 1.52 mL of SGF preheated to 37° C. before the addition of 0.08 mL of protein solution (Thomas et al., 2004). The mixture was placed into a thermomixer at 37° C. and was shaken at 400 rpm. For denaturating SDS-polyacrylamide gel electrophoresis (SDS-PAGE) analysis samples of 160 μl were removed at 0 minutes, 0.5 minutes, and 15 minutes after initiation.
SDS-PAGE was performed to analyze and visually inspect stained protein bands whether the protein band is still intact or fragmented after the digestion assay. […]
Each 160 μl of the digestion samples was quenched by […] of 200 mM NaHCO3 as neutralization step and 56 μl 4× Laemmli (Laemmli 1970) buffer for electrophoresis. Samples were immediately heated up to 99° C. for 10 minutes and analyzed directly or stored at −20° C. […]

Molecule | oxygen concentration after the addition of oxycodone (oxidation of oxycodone) (laccase [1]) | effect of mediator on oxycodone (MS-TOF analysis) (laccase [2]) | proteolytic degradation (pepsin; SGF pH 1.2, pepsin 10000 Units per mg test protein, samples at 0, 0.5, 15 minutes, SDS-PAGE) | protein band on SDS-PAGE after pepsin digestion (pepsin; SGF pH 1.2, pepsin)
CCOc1cc(C=O)ccc1O [ethylvanillin] | drop in oxygen concentration | – | – | –
O=C(O)c1cc(O)c(O)c(O)c1 [gallic acid] | no apparent effect | no apparent effect | – | –
COc1cc(C(=O)O)cc(OC)c1O [syringic acid] | drop in oxygen concentration | – | – | –
COc1cc(C=O)ccc1O [vanillin] | drop in oxygen concentration | – | – | –
HRP: horseradish peroxidase (EC 1.11.1.7) | – | – | very susceptible to proteolytic degradation | vanished within seconds
